Laboratory results from patent US11702404B2, “GLP-1R modulating compounds” (priority 2019, dated 2023).
Where two headings read alike, the source gives them in different places.

What was measured:
[1] = Microsomal stability, human liver microsomes (predicted hepatic clearance); conditions: predicted from in vitro microsomal stability data
GLP-1R = GLP-1R (Homo sapiens, UniProt P43220); assay: GLP-1R activation: cAMP increase in CHO cells stably expressing GLP-1R; format: cell-based
[2] = cAMP increase, CHO cells stably expressing GLP-1R, 10 point dose response, 30 minutes incubation, read-out: EC50

GLP-1R, sequence (P43220 24-463): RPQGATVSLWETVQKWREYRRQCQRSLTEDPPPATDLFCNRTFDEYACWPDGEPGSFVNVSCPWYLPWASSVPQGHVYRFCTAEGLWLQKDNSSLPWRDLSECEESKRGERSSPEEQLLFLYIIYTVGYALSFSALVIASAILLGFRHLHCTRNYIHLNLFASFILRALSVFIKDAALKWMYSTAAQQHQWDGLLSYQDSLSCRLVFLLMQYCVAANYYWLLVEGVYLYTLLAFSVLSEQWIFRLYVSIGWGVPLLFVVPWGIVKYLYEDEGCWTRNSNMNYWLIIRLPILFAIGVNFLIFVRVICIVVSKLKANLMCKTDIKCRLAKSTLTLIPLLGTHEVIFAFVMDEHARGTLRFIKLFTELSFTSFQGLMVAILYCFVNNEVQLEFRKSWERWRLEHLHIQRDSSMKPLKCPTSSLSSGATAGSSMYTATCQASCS

CCn1nccc1Cn1c(Cc2ccc(-c3cccc(OCc4ccc(C#N)cc4F)n3)c(F)c2)nc2ccc(C(=O)O)cc21 [Example 533, 2-(4-(6-((4-cyano-2-fluorobenzyl)oxy)pyridin-2-yl)-3-fluorobenzyl)-1-((1-ethyl-1H-pyrazol-5-yl)methyl)-1H-benzo[d]imidazole-6-carboxylic acid]
Predicted Hepatic Clearance (Pred. Cl.) [1]: 10 mL/min/kg
EC50 (GLP-1R; [2]): 47.1 nM

N#Cc1ccc(COc2ncc(F)c(-c3cc(F)c(Cc4nc5c(F)cc(C(=O)O)cc5n4CC4(CF)CC4)cc3F)n2)c(F)c1 [Example 883]
Predicted Hepatic Clearance (Pred. Cl.) [1]: 7.5 mL/min/kg
EC50 (GLP-1R; [2]): 0.3 nM

CO[C@H](C)Cn1c(Cc2cc(F)c(-c3cccc(OCc4ccc(C#N)cc4F)n3)cc2F)nc2ccc(C(=O)O)cc21 [Example 588, (R)-2-(4-(6-((4-cyano-2-fluorobenzyl)oxy)pyridin-2-yl)-2,5-difluorobenzyl)-1-(2-methoxypropyl)-1H-benzo[d]imidazole-6-carboxylic acid]
Predicted Hepatic Clearance (Pred. Cl.) [1]: 6.5 mL/min/kg
EC50 (GLP-1R; [2]): 1.33 nM

COCCn1c(Cc2c(F)cc(-c3ccnc(OCc4ccc(C#N)cc4F)n3)c(F)c2F)nc2ccc(C(=O)O)cc21 [Example 405, 2-(4-(2-((4-cyano-2-fluorobenzyl)oxy)pyrimidin-4-yl)-2,3,6-trifluorobenzyl)-1-(2-methoxyethyl)-1H-benzo[d]imidazole-6-carboxylic acid]
Predicted Hepatic Clearance (Pred. Cl.) [1]: 5.5 mL/min/kg
EC50 (GLP-1R; [2]): 1.71 nM

N#Cc1ccc(COc2cccc(-c3cc(=O)n(Cc4nc5ccc(C(=O)O)cc5n4CC45CC(CO4)C5)cc3F)n2)c(F)c1 [Example 683]
Predicted Hepatic Clearance (Pred. Cl.) [1]: 6.5 mL/min/kg
EC50 (GLP-1R; [2]): 2.41 nM

N#Cc1ccc(COc2nc(-c3ccc(Cc4nc5c(F)cc(C(=O)O)cc5n4C[C@@H]4CCO4)cc3)ccc2F)c(F)c1 [Example 675]
Predicted Hepatic Clearance (Pred. Cl.) [1]: 2.83 mL/min/kg
EC50 (GLP-1R; [2]): 0.16 nM

COCCn1c(Cc2ccc(-c3cccc(OCc4ccc(C#N)cc4OC)n3)cc2F)nc2ccc(C(=O)O)cc21 [Example 243, 2-(4-(6-((4-cyano-2-methoxybenzyl)oxy)pyridin-2-yl)-2-fluorobenzyl)-1-(2-methoxyethyl)-1H-benzo[d]imidazole-6-carboxylic acid]
Predicted Hepatic Clearance (Pred. Cl.) [1]: 10.2 mL/min/kg
EC50 (GLP-1R; [2]): 0.88 nM

CC(=O)N1CCC[C@@H]1Cn1c(Cc2cc(F)c(-c3cccc(OCc4ccc(C#N)cc4F)n3)cc2F)nc2ccc(C(=O)O)cc21 [Example 591, (R)-1-((1-acetylpyrrolidin-2-yl)methyl)-2-(4-(6-((4-cyano-2-fluorobenzyl)oxy)pyridin-2-yl)-2,5-difluorobenzyl)-1H-benzo[d]imidazole-6-carboxylic acid]
Predicted Hepatic Clearance (Pred. Cl.) [1]: 7 mL/min/kg
EC50 (GLP-1R; read-out: EC50): 0.17 nM

COCCn1c(Cc2cc(F)c(-c3cccc(OCc4ccc(-c5cnn(C)c5)cc4F)n3)cc2F)nc2ccc(C(=O)O)cc21 [Example 915, 2-[[2,5-difluoro-4-[6-[[2-fluoro-4-(1-methylpyrazol-4-yl)phenyl]methoxy]-2-pyridyl]phenyl]methyl]-3-(2-methoxyethyl)benzimidazole-5-carboxylic acid]
Predicted Hepatic Clearance (Pred. Cl.) [1]: 4 mL/min/kg
EC50 (GLP-1R; [2]): 2.26 nM

CC(C)(Cn1c(Cc2cc(F)c(-c3cccc(OCc4ccc(C#N)cc4F)n3)cc2F)nc2ccc(C(=O)O)cc21)OC(F)F [Example 721]
Predicted Hepatic Clearance (Pred. Cl.) [1]: 7.83 mL/min/kg
EC50 (GLP-1R; [2]): 1.31 nM

COCCn1c(Cc2ccc(-c3cccc(OCc4ccc(C#N)cc4F)n3)cc2F)nc2c(OC)cc(C(=O)O)cc21 [Example 345, 2-(4-(6-((4-cyano-2-fluorobenzyl)oxy)pyridin-2-yl)-2-fluorobenzyl)-4-methoxy-1-(2-methoxyethyl)-1H-benzo[d]imidazole-6-carboxylic]
Predicted Hepatic Clearance (Pred. Cl.) [1]: 3.83 mL/min/kg
EC50 (GLP-1R; [2]): 175 nM

N#Cc1ccc(COc2cccc(-c3cc(F)c(Cc4nc5ccc(C(=O)O)cc5n4Cc4ccsn4)cc3F)n2)c(F)c1 [Example 580, 2-(4-(6-((4-cyano-2-fluorobenzyl)oxy)pyridin-2-yl)-2,5-difluorobenzyl)-1-(isothiazol-3-ylmethyl)-1H-benzo[d]imidazole-6-carboxylic acid]
Predicted Hepatic Clearance (Pred. Cl.) [1]: 5.83 mL/min/kg
EC50 (GLP-1R; [2]): 1.94 nM

COC[C@H](Cn1c(Cc2cc(F)c(-c3cccc(OCc4ccc(C#N)cc4F)n3)cc2F)nc2ccc(C(=O)O)cc21)OC [Example 620]
Predicted Hepatic Clearance (Pred. Cl.) [1]: 6.67 mL/min/kg
EC50 (GLP-1R; EC50 (nM)): 7.5 nM

COCCn1c(Cc2cc(F)c(-c3ccc(F)c(OCc4ccc(C#N)cc4F)n3)cc2F)nc2c(F)cc(C(=O)O)cc21 [Example 764]
Predicted Hepatic Clearance (Pred. Cl.) [1]: 3.17 mL/min/kg
EC50 (GLP-1R; [2]): 0.76 nM

COCCn1c(Cc2cc(F)c(-c3cccc(OCc4ccn(-c5ccccc5)n4)n3)cc2F)nc2ccc(C(=O)O)cc21 [Example 694]
Predicted Hepatic Clearance (Pred. Cl.) [1]: 1.83 mL/min/kg
EC50 (GLP-1R; [2]): 41.7 nM

N#Cc1ccc(COc2ccc(F)c(-c3cc(F)c(Cc4nc5c(F)cc(C(=O)O)cc5n4C[C@@H]4CCO4)cc3F)n2)c(F)c1 [Example 792]
Predicted Hepatic Clearance (Pred. Cl.) [1]: 6.17 mL/min/kg
EC50 (GLP-1R; [2]): 0.04 nM

N#Cc1ccc(COc2cccc(-c3cc(F)c(Cc4nc5ccc(C(=O)O)cc5n4C[C@@H]4CC(F)(F)CO4)cc3F)n2)c(F)c1 (racemic) [Example 573, 2-(4-(6-((4-cyano-2-fluorobenzyl)oxy)pyridin-2-yl)-2,5-difluorobenzyl)-1-((4,4-difluorotetrahydrofuran-2-yl)methyl)-1H-benzo[d]imidazole-6-carboxylic acid]
Predicted Hepatic Clearance (Pred. Cl.) [1]: 6.5 mL/min/kg
EC50 (GLP-1R; [2]): 0.89 nM

COCCn1c(Cc2cc(F)c(-c3cccc(OCc4cccc(-c5cnn(C)c5)c4)n3)cc2F)nc2ccc(C(=O)O)cc21 [Example 913]
Predicted Hepatic Clearance (Pred. Cl.) [1]: 3.83 mL/min/kg
EC50 (GLP-1R; [2]): 112 nM

N#Cc1ccc(COc2cccc(-c3ccc(Cc4nc5ncc(C(=O)O)cc5n4CC4(CF)CC4)c(F)c3)n2)c(F)c1 [Example 92, 2-(4-(6-((4-cyano-2-fluorobenzyl)oxy)pyridin-2-yl)-2-fluorobenzyl)-1-((1-(fluoromethyl)cyclopropyl)methyl)-1H-imidazo[4,5-b]pyridine-6-carboxylic acid]
Predicted Hepatic Clearance (Pred. Cl.) [1]: 3.17 mL/min/kg
EC50 (GLP-1R; read-out: EC50): 2.64 nM

COCCn1c(Cc2cc(F)c(-c3cccc(OCc4ccc(C#N)cc4F)n3)cc2C)nc2ccc(C(=O)O)cc21 [Example 674]
Predicted Hepatic Clearance (Pred. Cl.) [1]: 6 mL/min/kg
EC50 (GLP-1R; [2]): 2.73 nM

CC(C)(O)[C@H](F)Cn1c(Cc2ccc(-c3cccc(OCc4ccc(C#N)cc4F)n3)cc2F)nc2ccc(C(=O)O)cc21 [Example 278, (R)-2-(4-(6-((4-cyano-2-fluorobenzyl)oxy)pyridin-2-yl)-2-fluorobenzyl)-1-(2-fluoro-3-hydroxy-3-methylbutyl)-1H-benzo[d]imidazole-6-carboxylic acid]
Predicted Hepatic Clearance (Pred. Cl.) [1]: 3 mL/min/kg
EC50 (GLP-1R; [2]): 1640 nM

N#Cc1ccc(COc2cccc(-c3cc(F)c(Cc4nc5ccc(C(=O)O)cc5n4Cc4ccc[nH]c4=O)cc3F)n2)c(F)c1 [Example 312, 2-(4-(6-((4-cyano-2-fluorobenzyl)oxy)pyridin-2-yl)-2,5-difluorobenzyl)-1-((2-oxo-1,2-dihydropyridin-3-yl)methyl)-1H-benzo[d]imidazole-6-carboxylic acid]
Predicted Hepatic Clearance (Pred. Cl.) [1]: 4.67 mL/min/kg
EC50 (GLP-1R; [2]): 250 nM
